Measurements: PubChem BioAssay (NCI)
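48-hour exposure; five concentrations; linearly interpolated endpoints. The concentration for full growth arrest is given as TGI.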

Tests used:
Assay in all cases: NCI-60 cell line screen, 48 h
[1] = test system: 786-0 renal
[2] = test system: A498 renal
[3] = test system: A549 NSCLC
[4] = test system: CAKI-1 renal
[5] = test system: CCRF-CEM leukemia
[6] = test system: COLO 205 colon
[7] = test system: DLD-1 colon
[8] = test system: DMS 114 small cell lung
[9] = test system: DMS 273 small cell lung
[10] = test system: EKVX NSCLC
[11] = test system: HCC-2998 colon
[12] = test system: HCT-116 colon
[13] = test system: HCT-15 colon
[14] = test system: HL-60(TB) leukemia
[15] = test system: HOP-62 NSCLC
[16] = test system: HOP-92 NSCLC
[17] = test system: HT29 colon
[18] = test system: IGROV1 ovarian
[19] = test system: K-562 leukemia
[20] = test system: KM12 colon
[21] = test system: KM20L2 colon
[22] = test system: LOX IMVI melanoma
[23] = test system: LXFL 529 NSCLC
[24] = test system: M14 melanoma
[25] = test system: M19-MEL melanoma
[26] = test system: MALME-3M melanoma
[27] = test system: MOLT-4 leukemia
[28] = test system: NCI-H226 lung
[29] = test system: NCI-H23 lung
[30] = test system: NCI-H460 lung
[31] = test system: NCI-H522 lung
[32] = test system: OVCAR-3 ovarian
[33] = test system: OVCAR-4 ovarian
[34] = test system: OVCAR-5 ovarian
[35] = test system: OVCAR-8 ovarian
[36] = test system: RPMI-8226 leukemia
[37] = test system: RXF 393 renal
[38] = test system: SF-268 CNS
[39] = test system: SF-295 CNS
[40] = test system: SF-539 CNS
[41] = test system: SK-MEL-5 melanoma
[42] = test system: SK-OV-3 ovarian
[43] = test system: SN12C renal
[44] = test system: SNB-19 CNS
[45] = test system: SNB-75 CNS
[46] = test system: SNB-78 CNS
[47] = test system: SR leukemia
[48] = test system: SW-620 colon
[49] = test system: TK-10 renal
[50] = test system: U251 CNS
[51] = test system: UACC-257 melanoma
[52] = test system: UACC-62 melanoma
[53] = test system: UO-31 renal
[54] = test system: XF 498 CNS
[55] = test system: ACHN renal
[56] = test system: SK-MEL-2 melanoma
[57] = test system: SK-MEL-28 melanoma

In the case of `COC(=O)c1c(C(=O)OC)c(-c2ccccc2)n(-c2ccccc2)c(=O)c1-c1ccccc1`, the TGI [1] is reported as over 100 µM, the TGI [2] is reported as over 100 µM and the TGI [3] is reported as over 100 µM. The TGI [4] was over 100 µM, the TGI [5] was over 100 µM and the TGI [6] was over 100 µM. It also gave a TGI [7] of over 100 µM, a TGI [8] of over 100 µM and a TGI [9] of over 100 µM. For the same molecule, the TGI [10] was over 100 µM, the TGI [11] was over 100 µM and the TGI [12] was over 100 µM. The TGI [13] was over 100 µM, the TGI [14] was over 100 µM and the TGI [15] was over 100 µM. For the same molecule, the TGI [16] was 83 µM, the TGI [17] was over 100 µM and the TGI [18] was over 100 µM. It also gave a TGI [19] of over 100 µM, a TGI [20] of over 100 µM and a TGI [21] of over 100 µM. The TGI [22] was over 100 µM, the TGI [23] was over 100 µM and the TGI [24] was over 100 µM. For the same molecule, the TGI [25] was over 100 µM, the TGI [26] was over 100 µM and the TGI [27] was over 100 µM. For the same molecule, the TGI [28] was over 100 µM, the TGI [29] was over 100 µM and the TGI [30] was over 100 µM. It also gave a TGI [31] of over 100 µM, a TGI [32] of over 100 µM and a TGI [33] of 78.1 µM. The TGI [34] was over 100 µM, the TGI [35] was over 100 µM and the TGI [36] was over 100 µM. The TGI [37] was 60.8 µM, the TGI [38] was over 100 µM and the TGI [39] was over 100 µM. The TGI [40] was over 100 µM, the TGI [41] was over 100 µM and the TGI [42] was over 100 µM. The TGI [43] was over 100 µM, the TGI [44] was over 100 µM and the TGI [45] was 64 µM. It also gave a TGI [46] of over 100 µM, a TGI [47] of over 100 µM and a TGI [48] of over 100 µM. The TGI [49] was over 100 µM, the TGI [50] was over 100 µM and the TGI [51] was over 100 µM. For the same molecule, the TGI [52] was over 100 µM, the TGI [53] was over 100 µM and the TGI [54] was 68.8 µM.
`Cc1cc(NCCCCCCCNc2cc(C)nc3cc(N)ccc23)c2ccc(N)cc2n1` was tested, and the TGI [1] was over 100 µM, the TGI [2] was over 100 µM and the TGI [3] was over 100 µM. It also gave a TGI [55] of over 100 µM, a TGI [4] of over 100 µM and a TGI [5] of 64.9 µM. For the same molecule, the TGI [6] was 29.3 µM, the TGI [7] was over 100 µM and the TGI [8] was 32 µM. It also gave a TGI [10] of over 100 µM, a TGI [11] of over 100 µM and a TGI [12] of over 100 µM. It also gave a TGI [13] of over 100 µM, a TGI [14] of 23.9 µM and a TGI [15] of over 100 µM. The TGI [17] was over 100 µM, the TGI [19] was 26.1 µM and the TGI [20] was 45.1 µM. The TGI [21] was over 100 µM, the TGI [22] was 45.4 µM and the TGI [23] was over 100 µM. The TGI [24] was over 100 µM, the TGI [25] was over 100 µM and the TGI [26] was over 100 µM. For the same molecule, the TGI [27] was over 100 µM, the TGI [28] was 78.4 µM and the TGI [29] was over 100 µM. For the same molecule, the TGI [30] was over 100 µM, the TGI [31] was 81.5 µM and the TGI [32] was over 100 µM. For the same molecule, the TGI [33] was over 100 µM, the TGI [34] was over 100 µM and the TGI [35] was over 100 µM. The TGI [36] was over 100 µM, the TGI [37] was over 100 µM and the TGI [38] was over 100 µM. For the same molecule, the TGI [39] was over 100 µM, the TGI [40] was over 100 µM and the TGI [56] was over 100 µM. It also gave a TGI [57] of over 100 µM, a TGI [41] of over 100 µM and a TGI [42] of over 100 µM. The TGI [43] was over 100 µM, the TGI [44] was over 100 µM and the TGI [45] was over 100 µM. For the same molecule, the TGI [46] was over 100 µM, the TGI [47] was 66.8 µM and the TGI [49] was over 100 µM. For the same molecule, the TGI [50] was over 100 µM, the TGI [51] was over 100 µM and the TGI [52] was over 100 µM. It also gave a TGI [53] of over 100 µM and a TGI [54] of 66.2 µM.
